Legend:
[1] = target: T1, E. coli PBP2 (Escherichia coli, UniProt P0AD65); experiment: Bocillin FL competition binding assay, PBP2; design: species or system Escherichia coli K12; details: 15 min pre-incubation
T1 construct: 100 μg's of total membrane protein extracts containing PBPs; endogenous in cells; host or cells: Escherichia coli K12, membrane protein fraction
In short: (§1)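 E. coli K12 membrane extracts (100 µg protein) pre-incubated 15 min with compound (0.005–2,480 µg/mL) in pH 7 phosphate/350 mM NaCl, then labelled with Bocillin FL 30 min at 35°C; SDS-PAGE fluorescence (ex 450/em 520 nm), μg/mL reported. PBP1a/1b unresolved, reported combined.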

[2] = test system: E. coli DH5a harboring OXA-48; experiment: Broth microdilution MIC, engineered E. coli expressing OXA-48; format: cell-based; details: Escherichia coli, read-out: MIC, β-lactamase OXA
Procedure: To determine the ability of test compounds to potentiate the inhibition of the growth of bacterial strains, classic cell based broth microdilution MIC assays were employed. MIC assays are performed according to CLSI methods except where otherwise noted (CLSI, 2011 and CLSI, 2009). The reference strain S. aureus ATCC 29213 and the hyper-permeable E. coli 901C were used to determine the ability of the PBP compounds to inhibit bacterial growth. Briefly, cryo-preserved bacterial cultures of clinical strains are streaked for isolation on appropriate agar medium, in this case Mueller Hinton II agar. Following incubation to allow formation of colonies these plates are sealed with parafilm and stored refrigerated for up to two weeks. For preparation of assay inocula and to ensure low variability, at least 5 colonies are picked from the agar plates with an inoculating loop and aseptically transferred to a culture tube containing 3 mL of Mueller-Hinton Broth (supplemented with divalent cations to required levels based on Manufacturers' certification). The broth culture is grown for 3-5 hours at 37° C. with shaking at 200 rpm. Meanwhile, 2-fold serial dilutions of test compounds are conducted in a 96 well plate with a final volume of 75 μL per well at 2-fold the final desired concentration. After the dilution plates are set up the growing cultures are then diluted in a cuvette containing MH II broth and the optical density is measured at 600 nm. Inocula are diluted such that 75 μL of this culture in Mueller-Hinton Broth results in a starting bacterial concentration of 5×10^5 CFU/mL when added to the dilution plates. The plates are incubated 16-20 hours at 37° C. The MIC is read visually as the lowest concentration well with no bacterial growth.
To determine if test compounds were affected by various known β-lactamases, the inhibition of the growth of engineered strains of Escherichia coli harboring select single β-lactamases were tested. […]

[3] = target: T2, E. coli PBP3 (Escherichia coli, UniProt P0AD68); experiment: Bocillin FL competition binding assay, PBP3; design: species or system Escherichia coli K12; details: 15 min pre-incubation
T2 construct: 100 μg's of total membrane protein extracts containing PBPs; endogenous in cells; host or cells: Escherichia coli K12, membrane protein fraction
T2 sequence (P0AD68 1-577): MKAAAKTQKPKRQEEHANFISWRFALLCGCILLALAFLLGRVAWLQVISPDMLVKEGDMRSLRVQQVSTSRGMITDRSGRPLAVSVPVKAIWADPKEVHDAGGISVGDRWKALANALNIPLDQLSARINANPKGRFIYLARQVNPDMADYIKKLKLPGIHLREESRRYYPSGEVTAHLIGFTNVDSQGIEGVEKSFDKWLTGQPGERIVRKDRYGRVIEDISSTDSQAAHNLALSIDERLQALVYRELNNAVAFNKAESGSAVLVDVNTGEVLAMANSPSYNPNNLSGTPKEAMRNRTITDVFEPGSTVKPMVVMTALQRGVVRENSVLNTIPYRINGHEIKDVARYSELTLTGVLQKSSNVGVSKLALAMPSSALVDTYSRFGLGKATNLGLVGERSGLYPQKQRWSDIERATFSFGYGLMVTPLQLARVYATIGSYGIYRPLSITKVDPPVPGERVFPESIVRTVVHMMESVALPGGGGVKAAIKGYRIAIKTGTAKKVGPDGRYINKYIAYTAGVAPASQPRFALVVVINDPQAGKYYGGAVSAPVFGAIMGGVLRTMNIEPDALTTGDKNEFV
In short: as §1

[4] = test system: engineered strains of Escherichia coli harboring select single β-lactamases; experiment: MIC across the panel of engineered E. coli strains harboring select single β-lactamases; format: cell-based; details: strains expressing β-lactamases compared with control strain, result in words
Procedure: To determine if test compounds were affected by various known β-lactamases, the inhibition of the growth of engineered strains of Escherichia coli harboring select single β-lactamases were tested. These strains were constructed by cloning the gene encoding the particular β-lactamase into the NdeI and BamHI restriction endonuclease sites of plasmid pLBII, placing the gene(s) under the control of the Lac promoter.

[5] = target: T3, E. coli K12 PBP1b (Escherichia coli, UniProt P02919); experiment: Competition binding assay using Bodipy-FL boronic acid probe (Example 125); details: Bodipy-FL boronic acid probe (Example 125) 30 μM, 10 minutes pre-incubation, 10 minutes reaction
T3 construct: endogenous in cells; host or cells: Escherichia coli K12, membrane protein fraction
T3 sequence (P02919 whole entry): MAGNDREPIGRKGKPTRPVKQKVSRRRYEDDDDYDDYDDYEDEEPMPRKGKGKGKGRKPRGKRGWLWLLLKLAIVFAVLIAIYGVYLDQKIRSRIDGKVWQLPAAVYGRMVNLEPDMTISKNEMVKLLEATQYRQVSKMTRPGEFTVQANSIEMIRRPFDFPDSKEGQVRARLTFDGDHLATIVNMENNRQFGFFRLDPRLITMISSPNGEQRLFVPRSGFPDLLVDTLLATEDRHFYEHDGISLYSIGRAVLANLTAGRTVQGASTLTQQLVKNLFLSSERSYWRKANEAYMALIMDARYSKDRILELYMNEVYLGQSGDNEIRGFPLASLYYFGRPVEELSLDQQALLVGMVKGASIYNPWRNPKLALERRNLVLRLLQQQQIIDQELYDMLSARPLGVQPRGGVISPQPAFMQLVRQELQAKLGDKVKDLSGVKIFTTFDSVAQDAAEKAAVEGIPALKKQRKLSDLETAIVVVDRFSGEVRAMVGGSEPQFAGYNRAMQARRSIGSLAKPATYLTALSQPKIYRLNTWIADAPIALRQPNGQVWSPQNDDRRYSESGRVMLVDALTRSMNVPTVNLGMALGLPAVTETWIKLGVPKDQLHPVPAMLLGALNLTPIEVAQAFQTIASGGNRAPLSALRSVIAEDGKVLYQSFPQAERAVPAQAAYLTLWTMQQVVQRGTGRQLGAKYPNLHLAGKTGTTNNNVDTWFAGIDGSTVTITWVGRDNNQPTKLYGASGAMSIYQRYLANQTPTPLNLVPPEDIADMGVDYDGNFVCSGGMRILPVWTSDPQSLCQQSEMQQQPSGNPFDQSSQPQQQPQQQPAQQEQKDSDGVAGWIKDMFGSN
Procedure: Penicillin binding proteins were isolated from Escherichia coli K12 by growth of Escherichia coli K12 from a single colony in 4 L of Luria-Bertani (LB) broth at 35° C. and 250 rpm to an OD600 nm of 0.5. The cells were harvested by centrifugation at 7,000×g for 10 min. at 4° C. Cells were resuspended and washed in 50 mM potassium phosphate pH 7.5. The cells were re-suspended in sonication buffer [50 mM Tris-HCl pH 7.5, 1 mM MgCl2, 1 mM beta-mercaptoethanol, and 5 μg/mL DNAse I] and sonicated by 4 passes of 30 seconds at 45 W on ice. The sample was clarified by centrifugation at 3,000×g to remove cell debris and unbroken cells and supernatant containing the membrane proteins was retained. The membrane proteins including the PBPs were further purified from soluble constituents by an ultracentrifugation step at 100,000×g for 30 min. at 4° C. The membrane proteins are washed twice with 10 mM sodium phosphate pH 7, resuspended in a volume of 5 mL, quantitated by BCA assay, adjusted to […] and frozen at −80° C. until use.
The adapted Bocillin FL competition binding method described herein incorporates a 15 min. pre-incubation of test compound with isolated PBPs to attempt to balance the difference in mechanism of inhibition between beta-lactams (largely irreversible covalent bond to active site Serine) and the boron-containing PBP inhibitor test compounds (reversible covalent bond to active site Serine). Briefly, 50 μL reactions consisted of 100 μg's of total membrane protein extracts containing PBPs incubated with a dilution series of test compound ranging from 0.005 μg/mL to 2,480 μg/mL in 10 mM sodium phosphate pH7 containing 350 mM NaCl. Thirty minute reactions at 35° C. were initiated by addition of […] Bocillin FL, quenched by addition of SDS-PAGE loading buffer containing sodium dodecyl sulfate (SDS) and heated for 15 minutes at 95° C. to denature proteins in preparation for SDS-polyacrylamide gel electrophoresis. The Bocillin FL labeled PBPs are then separated by SDS-PAGE in Novex NuPage 10% Bis-Tris pre-cast gels (Invitrogen). The SDS-PAGE gel, post-electrophoresis, is then washed in water to remove excess SDS for 10 minutes at room temperature and placed on the scanning bed of a GE Healthcare/Amersham Biosciences Storm 860 fluorescence scanner. The excitation wavelength is in the blue spectrum at 450 nm and the emission at 520 nm is captured by the instrument. Effective PBP inhibitors are detected by a reduction in Bocillin FL labeling of the particular PBP over the dose range of test compound in a dose-responsive manner. High molecular weight PBP 1a/1b are not resolved by these gels, thus we report HMW PBP binding results in μg/mL for PBPs 1a/1b combined as well as for PBP2 and PBP3.
To determine the ability of boronic acid-based test PBP inhibitors to bind Penicillin Binding Proteins (PBPs), a competition binding assay using a Bodipy-FL-labeled boronic acid PBP inhibitor (Example 125) was adapted from the classical method used to assess PBP potency of beta-lactams using Bocillin-FL (fluorescently-labeled penicillin V). The method is identical to that described in Example I for the Bocillin-FL competition binding assay with the following exceptions, the Bodipy-FL boronic acid probe (Example 125) is used at a final concentration of 30 μM, pre-incubation time of test compound with PBP enzymes is 10 minutes and reaction time is set for 10 minutes and reactions are prepared for SDS-PAGE analysis by simply adding SDS-containing loading buffer. Representative results are shown in Table 5, where A represents a potency of >1000 μg/mL, B represents a potency between 64 and 1000 μg/mL inclusive, and C represents a potency of <64 μg/mL. NT=Not Tested.

T1 sequence (P0AD65 whole entry): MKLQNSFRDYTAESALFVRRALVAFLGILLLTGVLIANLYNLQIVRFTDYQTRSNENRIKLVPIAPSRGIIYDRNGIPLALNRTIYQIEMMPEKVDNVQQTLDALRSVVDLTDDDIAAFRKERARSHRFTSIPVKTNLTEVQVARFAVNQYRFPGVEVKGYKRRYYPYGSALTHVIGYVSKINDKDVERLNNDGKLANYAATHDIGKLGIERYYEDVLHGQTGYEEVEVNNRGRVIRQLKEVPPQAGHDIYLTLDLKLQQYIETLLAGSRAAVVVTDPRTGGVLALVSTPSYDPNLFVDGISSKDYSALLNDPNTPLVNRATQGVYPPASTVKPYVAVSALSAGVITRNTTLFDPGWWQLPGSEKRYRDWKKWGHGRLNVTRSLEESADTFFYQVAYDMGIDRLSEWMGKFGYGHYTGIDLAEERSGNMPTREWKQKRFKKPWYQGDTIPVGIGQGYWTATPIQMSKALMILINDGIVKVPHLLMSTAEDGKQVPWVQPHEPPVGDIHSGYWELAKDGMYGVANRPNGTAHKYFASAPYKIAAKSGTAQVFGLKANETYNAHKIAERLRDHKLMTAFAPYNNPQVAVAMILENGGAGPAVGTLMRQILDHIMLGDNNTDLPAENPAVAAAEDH

SMILES: Nc1nc(/C(=N/O)C(=O)N[C@H]2Cc3cccc(C(=O)O)c3OB2O)cs1 [Example 6, (R,Z)-3-(2-(2-aminothiazol-4-yl)-2-(hydroxyimino)acetamido)-2-hydroxy-3,4-dihydro-2H-benzo[e][1,2]oxaborinine-8-carboxylic Acid]
- E. coli PBP2 Potency [1]: B (B represents a potency between 64 and 1000 μg/mL inclusive)
- MIC [2]: 16 µg/mL
- E. coli PBP3 Potency [3]: B (B represents a potency between 64 and 1000 μg/mL inclusive)
- Effect of expressed β-lactamase on MIC [4]: the same MIC values in strains regardless of the β-lactamase expressed
- E. coli K12 PBP1b Potency [5]: C (C represents a potency of <64 μg/mL)

Source: patent US11267826B2, “Penicillin-binding protein inhibitors” (priority 2017, dated 2022)
